Measured values: US9828375B2, “4-position substituted pyrazolopyrimidine derivative, and use thereof in drug preparation” (Guangxi Wuzhou Pharmaceuticals (Group) Co., Ltd., priority 2012, dated 2017)
pIC50: −log10 of the molar value.

Key:
Type in all cases: biochemical
[1] = target: c-RAF (Homo sapiens, UniProt P04049); test: Kinase inhibition activity test, isotope labeling: c-RAF; conditions: ATP 45 μM; read-out: c-RAF IC50 value (inhibitory activity value)
Method: (§1) The purpose of this experiment was to test the inhibitory activity of the compound of the invention for in vitro kinase with the isotope labeling method (the γ phosphate group on ATP was labeled). In this experiment, the in vitro activity inhibition of such kinases as FLT3, VEGFR2, FLT1, FLT4, RET, c-RAF, B-RAF, c-KIT, PDGFα, PDGFβ, FGFR2, FGFR1, EphA2, EphB2, SRC, ABL, ALK and Met was tested respectively. Staurosporine was reference molecule (or referred to as positive control). The kinase inhibition activity of the test compound was expressed by half-inhibitory concentration (IC50) or the kinase activity inhibition rate of the test compound at a concentration of 10 μM. The IC50 value could be obtained by calculating the kinase activity inhibition rate of the test compound at different concentrations.
(§2) 20 mM 3-(N-morpholinyl)propanesulfonic acid (MOPS); 1 mM ethylenediaminetetraacetic acid (EDTA), 0.01% Brij 35 (Brij-35), 5% glycerol, 0.1% mercaptoethanol, 1 mg/mL bovine serum albumin (BSA), 10 mM manganous dichloride solution (MnCl2), 0.1 mg/mL glutamic acid/tyrosine (4:1) polypeptide (poly(Glu, Tyr)4:1), 50 μM EAIYAAPFAKKK (substrate of FLT3), 0.33 mg/mL myelin basic protein (substrate of VEGFR2), 250 μM KKKSPGEYVNIEFG (substrate of FLT1(h)), 500 μM GGEEEEYFELVKKKK (substrate of FLT4(h)), 250 μM KKKSPGEYVNIEFG (substrate of RET), 0.66 mg/mL myelin basic protein (substrate of C-RAF), 250 μM GGMEDIYFEFMGGKKK (substrate of c-Kit), 250 μM GGMEDIYFEFMGGKKK (substrate of PDGFα), 250 μM KKKSPGEYVNIEFG (substrate of FGFR1), […] GGEEEEYFELVKKKK (substrate of SRC), 50 μM EAIYAAPFAKKK (substrate of ABL), 250 μM KKKSPGEYVNIEFG (substrate of ALK), 250 μM KKKSPGEYVNIEFG (substrate of Met(h)), 10 mM magnesium acetate and γ-^33 P-ATP solution, stop buffer (3% phosphate buffer), washing buffer (75 mM phosphate solution), methanol, Filtermat A membrane, FLT3, VEGFR2, FLT3, VEGFR2, FLT1, FLT4, RET, c-RAF, B-RAF, c-KIT, PDGFRα, PDGFRβ, FGFR2, FGFR1, EphA2, EphB2, SRC, ABL, ALK, Met and other kinases, and the test compounds.
(§3) Buffers (8 mM MOPS with pH value of 7.0, 0.2 mM EDTA and 10 mM MnCl2), (5-10 mU) kinases to be tested (FLT3, VEGFR2, FLT1, FLT4, RET, c-RAF, B-RAF, c-KIT, PDGFRα, PDGFRβ, FGFR2, FGFR1, EphA2, EphB2, SRC, ABL, ALK and Met), substrates of kinases to be tested (refer to experimental materials), 10 mM magnesium acetate and γ-^33 P-ATP solution, and test compounds at different concentrations were added to a reaction tube orderly. […] Reaction was terminated with 5 μL 3% phosphate buffer finally, and 10 μL reaction solution was titrated to the Filtermat A membrane; solution was washed for 3 times with 75 mM phosphate solution with each time lasting 5 minutes, and then washed once with methanol. […]

[2] = target: FLT1 (Homo sapiens, UniProt P17948); test: Kinase inhibition activity test, isotope labeling: FLT1; conditions: ATP 200 μM; read-out: FLT1 IC50 value (inhibitory activity value)
Method: as §1, §2, §3

[3] = target: FLT4 (Homo sapiens, UniProt P35916); test: Kinase inhibition activity test, isotope labeling: FLT4; conditions: ATP 200 μM; read-out: FLT4 IC50 value (inhibitory activity value)
Method: as §1, §2, §3

[4] = target: RET (Homo sapiens, UniProt P07949); test: Kinase inhibition activity test, isotope labeling: RET; conditions: ATP 70 μM; read-out: RET IC50 value (inhibitory activity value)
Method: as §1, §2, §3

Sequence of c-RAF (P04049 whole entry): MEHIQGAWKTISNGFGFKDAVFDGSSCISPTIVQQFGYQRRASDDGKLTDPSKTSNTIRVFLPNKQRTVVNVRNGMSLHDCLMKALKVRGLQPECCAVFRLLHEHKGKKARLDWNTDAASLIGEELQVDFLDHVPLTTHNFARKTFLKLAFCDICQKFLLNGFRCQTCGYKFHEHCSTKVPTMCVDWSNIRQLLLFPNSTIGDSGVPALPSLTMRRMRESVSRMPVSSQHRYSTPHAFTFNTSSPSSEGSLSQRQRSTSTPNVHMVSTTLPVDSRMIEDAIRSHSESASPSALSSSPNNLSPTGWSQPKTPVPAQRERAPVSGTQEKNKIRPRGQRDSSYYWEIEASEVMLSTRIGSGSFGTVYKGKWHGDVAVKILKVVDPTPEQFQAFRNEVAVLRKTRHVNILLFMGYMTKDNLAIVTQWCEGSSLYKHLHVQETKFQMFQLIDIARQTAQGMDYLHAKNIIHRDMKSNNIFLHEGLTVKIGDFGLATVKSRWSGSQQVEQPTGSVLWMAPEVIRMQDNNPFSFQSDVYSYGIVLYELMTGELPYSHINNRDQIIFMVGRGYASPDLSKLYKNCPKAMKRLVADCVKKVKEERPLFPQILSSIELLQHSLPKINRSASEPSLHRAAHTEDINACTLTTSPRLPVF
Sequence of FLT1 (P17948 27-1338): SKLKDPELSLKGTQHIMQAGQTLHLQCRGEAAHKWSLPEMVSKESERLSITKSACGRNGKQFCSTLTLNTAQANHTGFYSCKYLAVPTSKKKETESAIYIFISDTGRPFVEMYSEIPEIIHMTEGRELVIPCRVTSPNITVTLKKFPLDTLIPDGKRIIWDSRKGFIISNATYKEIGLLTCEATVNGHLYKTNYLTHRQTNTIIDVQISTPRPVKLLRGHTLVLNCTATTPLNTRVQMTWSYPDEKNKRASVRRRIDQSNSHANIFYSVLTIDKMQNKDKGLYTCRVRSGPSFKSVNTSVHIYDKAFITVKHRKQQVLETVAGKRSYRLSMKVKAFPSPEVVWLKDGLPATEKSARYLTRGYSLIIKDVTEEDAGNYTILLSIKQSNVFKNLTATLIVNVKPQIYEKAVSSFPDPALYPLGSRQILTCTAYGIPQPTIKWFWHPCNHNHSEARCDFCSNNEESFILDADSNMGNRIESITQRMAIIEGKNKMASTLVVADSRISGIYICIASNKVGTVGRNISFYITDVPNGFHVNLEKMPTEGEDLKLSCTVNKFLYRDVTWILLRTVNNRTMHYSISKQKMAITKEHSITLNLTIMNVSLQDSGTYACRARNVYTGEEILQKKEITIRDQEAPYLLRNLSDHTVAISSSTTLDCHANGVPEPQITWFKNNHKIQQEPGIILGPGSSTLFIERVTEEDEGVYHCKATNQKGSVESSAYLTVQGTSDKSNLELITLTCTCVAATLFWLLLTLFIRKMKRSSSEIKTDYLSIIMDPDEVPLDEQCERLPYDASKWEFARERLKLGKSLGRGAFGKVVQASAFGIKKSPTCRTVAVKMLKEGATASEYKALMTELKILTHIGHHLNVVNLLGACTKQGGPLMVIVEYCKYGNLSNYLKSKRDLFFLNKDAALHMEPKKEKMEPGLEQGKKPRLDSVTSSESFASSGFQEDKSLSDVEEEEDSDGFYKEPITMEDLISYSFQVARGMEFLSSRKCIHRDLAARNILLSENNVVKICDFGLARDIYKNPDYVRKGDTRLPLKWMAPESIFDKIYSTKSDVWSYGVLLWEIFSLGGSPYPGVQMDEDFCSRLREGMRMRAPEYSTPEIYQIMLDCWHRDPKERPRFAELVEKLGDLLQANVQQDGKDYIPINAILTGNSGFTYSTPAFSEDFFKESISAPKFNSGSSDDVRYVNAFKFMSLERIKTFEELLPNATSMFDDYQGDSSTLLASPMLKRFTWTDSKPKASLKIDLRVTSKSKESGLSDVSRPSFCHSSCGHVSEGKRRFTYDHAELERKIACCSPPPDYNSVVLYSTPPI
Sequence of RET (P07949 29-1114): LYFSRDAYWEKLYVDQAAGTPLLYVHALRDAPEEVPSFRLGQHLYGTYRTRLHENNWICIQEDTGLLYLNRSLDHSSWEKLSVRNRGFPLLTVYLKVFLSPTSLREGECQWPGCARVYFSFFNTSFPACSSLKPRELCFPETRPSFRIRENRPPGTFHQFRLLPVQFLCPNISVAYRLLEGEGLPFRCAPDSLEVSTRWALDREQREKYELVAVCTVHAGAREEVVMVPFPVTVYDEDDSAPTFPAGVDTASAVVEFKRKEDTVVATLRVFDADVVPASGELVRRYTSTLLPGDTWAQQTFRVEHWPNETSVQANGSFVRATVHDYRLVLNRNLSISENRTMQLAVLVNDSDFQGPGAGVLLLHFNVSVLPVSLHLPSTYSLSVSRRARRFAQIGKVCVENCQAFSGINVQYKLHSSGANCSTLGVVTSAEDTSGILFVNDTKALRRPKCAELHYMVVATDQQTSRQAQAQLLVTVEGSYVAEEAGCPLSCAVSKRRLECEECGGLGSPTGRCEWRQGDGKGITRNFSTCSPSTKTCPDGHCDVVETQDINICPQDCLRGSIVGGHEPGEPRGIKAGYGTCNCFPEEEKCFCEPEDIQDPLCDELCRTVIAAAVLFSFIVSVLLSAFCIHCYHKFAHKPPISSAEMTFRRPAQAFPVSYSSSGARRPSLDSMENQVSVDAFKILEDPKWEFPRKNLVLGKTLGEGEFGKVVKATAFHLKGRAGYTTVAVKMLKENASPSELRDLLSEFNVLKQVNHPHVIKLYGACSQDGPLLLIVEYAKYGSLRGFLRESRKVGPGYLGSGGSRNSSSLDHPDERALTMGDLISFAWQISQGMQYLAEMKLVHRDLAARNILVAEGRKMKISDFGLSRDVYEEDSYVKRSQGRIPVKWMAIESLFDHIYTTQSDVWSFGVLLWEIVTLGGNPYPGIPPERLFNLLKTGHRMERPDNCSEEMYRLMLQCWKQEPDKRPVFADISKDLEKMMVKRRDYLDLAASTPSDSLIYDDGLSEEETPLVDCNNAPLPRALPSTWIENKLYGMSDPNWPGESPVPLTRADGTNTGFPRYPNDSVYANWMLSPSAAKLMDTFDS
Sequence of FLT4 (P35916 25-1363): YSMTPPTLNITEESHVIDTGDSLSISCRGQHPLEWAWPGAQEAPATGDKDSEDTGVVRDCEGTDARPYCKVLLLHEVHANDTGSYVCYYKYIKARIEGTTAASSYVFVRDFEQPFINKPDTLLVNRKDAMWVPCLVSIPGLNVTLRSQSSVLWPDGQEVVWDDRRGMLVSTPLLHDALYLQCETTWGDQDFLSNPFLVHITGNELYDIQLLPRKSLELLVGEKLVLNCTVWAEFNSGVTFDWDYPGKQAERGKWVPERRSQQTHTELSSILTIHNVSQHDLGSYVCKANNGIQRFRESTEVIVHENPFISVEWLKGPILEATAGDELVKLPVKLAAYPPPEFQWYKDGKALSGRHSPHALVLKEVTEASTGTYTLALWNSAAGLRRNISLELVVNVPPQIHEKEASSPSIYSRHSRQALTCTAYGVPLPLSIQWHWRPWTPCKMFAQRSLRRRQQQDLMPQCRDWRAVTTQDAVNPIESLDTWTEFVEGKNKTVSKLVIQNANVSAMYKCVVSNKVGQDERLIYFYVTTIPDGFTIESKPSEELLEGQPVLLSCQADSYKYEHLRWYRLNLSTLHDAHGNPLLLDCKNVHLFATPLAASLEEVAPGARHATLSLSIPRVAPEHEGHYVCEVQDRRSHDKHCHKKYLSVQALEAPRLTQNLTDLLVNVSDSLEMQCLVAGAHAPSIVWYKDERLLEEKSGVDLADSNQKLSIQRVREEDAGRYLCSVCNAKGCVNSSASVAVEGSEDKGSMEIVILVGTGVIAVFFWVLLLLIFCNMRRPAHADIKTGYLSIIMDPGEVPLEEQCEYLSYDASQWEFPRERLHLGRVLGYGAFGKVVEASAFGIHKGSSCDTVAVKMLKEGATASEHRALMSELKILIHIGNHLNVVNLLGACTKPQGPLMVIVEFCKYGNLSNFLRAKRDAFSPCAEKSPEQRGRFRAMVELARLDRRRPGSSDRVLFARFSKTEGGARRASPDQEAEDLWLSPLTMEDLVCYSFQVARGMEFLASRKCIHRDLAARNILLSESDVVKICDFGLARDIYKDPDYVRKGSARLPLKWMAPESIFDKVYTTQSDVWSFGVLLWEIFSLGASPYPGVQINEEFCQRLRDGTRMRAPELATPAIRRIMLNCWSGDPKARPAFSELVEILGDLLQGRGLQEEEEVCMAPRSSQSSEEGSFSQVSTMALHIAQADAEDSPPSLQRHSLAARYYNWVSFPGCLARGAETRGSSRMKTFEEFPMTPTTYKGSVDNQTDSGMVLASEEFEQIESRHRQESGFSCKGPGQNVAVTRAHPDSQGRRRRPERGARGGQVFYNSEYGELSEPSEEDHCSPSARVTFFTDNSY

| pIC50 [1] | pIC50 [2] | pIC50 [3] | pIC50 [4] | Compound |
| --- | --- | --- | --- | --- |
| 7.14 | > 5.00 | > 5.00 | > 5.00 | O=C(Nc1ccc(Oc2ncnc3[nH]ncc23)cc1)Nc1ccc(Cl)c(C(F)(F)F)c1 [4a-2] |
| 7.28 | > 5.00 | > 5.00 | > 5.00 | CC(C)(C)c1cc(NC(=O)Nc2ccc(Oc3ncnc4[nH]ncc34)cc2)on1 [4a-25] |
| 7.34 | > 5.00 | > 5.00 | > 5.00 | CC(C)(C)c1cc(NC(=O)Nc2ccc(Oc3ncnc4[nH]ncc34)c(F)c2)no1 [4a-31] |

| Compound | pIC50 [1] | pIC50 [2] | pIC50 [3] | pIC50 [4] |
| --- | --- | --- | --- | --- |
| O=C(Nc1ccc(Oc2ncnc3[nH]ncc23)cc1)Nc1cccc(C(F)(F)F)c1 [4a-6] | 7.09 | 8.30 | 8.30 | 8.40 |
